Data: patent US20090239918A1, “SELECTIVE SUBTYPE ALPHA 2 ADRENERGIC AGENTS AND METHODS FOR USE THEREOF” (ALLERGAN, INC., priority 2008, published 2009)

Assays:
Alpha 2C receptor = biological target: T1, Alpha 2C receptor (Homo sapiens, UniProt P18825); assay: RSAT (Receptor Selection and Amplification Technology) assay, alpha 2C; type: cell-based; settings: for EC50: NIH-3T3 cells cotransfected with receptor and Gq/i5, na = not active; for RSAT (rel eff) Alpha 2C, intrinsic activity: ratio of maximal effect of the drug to maximal effect of standard full agonist brimonidine
T1 construct: expressed in transfected cells; host or cells: NIH-3T3
T1 sequence (P18825 1-462): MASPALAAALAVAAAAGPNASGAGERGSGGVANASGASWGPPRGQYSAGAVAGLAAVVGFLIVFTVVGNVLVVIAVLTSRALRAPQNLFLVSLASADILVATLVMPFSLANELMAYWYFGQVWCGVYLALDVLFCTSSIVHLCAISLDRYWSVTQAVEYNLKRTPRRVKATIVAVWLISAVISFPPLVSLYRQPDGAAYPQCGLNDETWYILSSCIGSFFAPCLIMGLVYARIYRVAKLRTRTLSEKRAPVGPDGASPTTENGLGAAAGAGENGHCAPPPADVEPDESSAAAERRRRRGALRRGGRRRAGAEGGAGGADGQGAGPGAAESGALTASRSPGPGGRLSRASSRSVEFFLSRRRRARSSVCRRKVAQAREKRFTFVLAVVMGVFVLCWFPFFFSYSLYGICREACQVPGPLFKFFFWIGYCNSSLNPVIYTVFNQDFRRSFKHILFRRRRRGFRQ
Protocol: (§1) 76, pp. 308-311 (incorporated herein by reference) and is also described below.
(§2) The RSAT assay measures a receptor-mediated loss of contact inhibition that results in selective proliferation of receptor-containing cells in a mixed population of confluent cells. The increase in cell number is assessed with an appropriate transfected marker gene such as β-galactosidase, the activity of which can be easily measured in a 96-well format. Receptors that activate the G protein, Gq, elicit this response. Alpha 2 receptors, which normally couple to Gi, activate the RSAT response when coexpressed with a hybrid Gq protein that has a Gi receptor recognition domain, called Gq/i5.
(§3) NIH-3T3 cells are plated at a density of 2×10^6 cells in 15 cm dishes and maintained in Dulbecco's modified Eagle's medium supplemented with 10% calf serum. One day later, cells are cotransfected by calcium phosphate precipitation with mammalian expression plasmids encoding p-SV-β-galactosidase (5-10 μg), receptor (1-2 μg) and G protein (1-2 μg). 40 μg salmon sperm DNA may also be included in the transfection mixture. Fresh media is added on the following day and 1-2 days later, cells are harvested and frozen in 50 assay aliquots. Cells are thawed and 100 μl added to 100 μL aliquots of various concentrations of drugs in triplicate in 96-well dishes. Incubations continue 72-96 hr at 37° C. After washing with phosphate-buffered saline, β-galactosidase enzyme activity is determined by adding 200 μL of the chromogenic substrate (consisting of 3.5 mM o-nitrophenyl-β-D-galactopyranoside and 0.5% nonidet P-40 in phosphate buffered saline), incubating overnight at 30° C. and measuring optical density at 420 nm. The absorbance is a measure of enzyme activity, which depends on cell number and reflects a receptor-mediated cell proliferation. The efficacy or intrinsic activity is calculated as a ratio of the maximal effect of the drug to the maximal effect of a standard full agonist for each receptor subtype. Brimonidine, the chemical structure of which is shown below, is used as the standard agonist for the alpha 2B and alpha 2C receptors.

Alpha 2B receptor = biological target: T2, Alpha 2B receptor (Homo sapiens, UniProt P18089); assay: RSAT (Receptor Selection and Amplification Technology) assay, alpha 2B; type: cell-based; settings: for EC50: NIH-3T3 cells cotransfected with receptor and Gq/i5, na = not active; for RSAT (rel eff) Alpha 2B, intrinsic activity: ratio of maximal effect of the drug to maximal effect of standard full agonist brimonidine
T2 construct: expressed in transfected cells; host or cells: NIH-3T3
T2 sequence (P18089 1-450): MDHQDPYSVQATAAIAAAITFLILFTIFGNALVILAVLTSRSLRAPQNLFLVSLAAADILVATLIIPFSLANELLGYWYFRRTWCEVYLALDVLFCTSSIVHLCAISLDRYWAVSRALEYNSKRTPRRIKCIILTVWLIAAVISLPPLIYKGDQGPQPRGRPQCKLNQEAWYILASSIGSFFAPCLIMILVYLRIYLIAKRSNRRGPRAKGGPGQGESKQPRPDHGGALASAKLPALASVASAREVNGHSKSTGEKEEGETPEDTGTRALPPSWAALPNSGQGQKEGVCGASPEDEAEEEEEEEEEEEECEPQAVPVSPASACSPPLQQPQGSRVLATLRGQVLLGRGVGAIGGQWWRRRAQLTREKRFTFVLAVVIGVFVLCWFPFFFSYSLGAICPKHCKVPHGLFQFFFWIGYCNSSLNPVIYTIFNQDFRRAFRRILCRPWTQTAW
Protocol: as §1, §2, §3

SMILES	EC50 (Alpha 2C receptor)	RSAT (rel eff) Alpha 2C, intrinsic activity (Alpha 2C receptor)	EC50 (Alpha 2B receptor)	RSAT (rel eff) Alpha 2B, intrinsic activity (Alpha 2B receptor)
c1ccc(CC(/N=C2/NCCS2)c2ccccc2)cc1 (centres unmarked)	9.63 nM	0.42	5.43 nM	0.90
Clc1cccc(C(Cc2ccccc2Br)NC2=NCCO2)c1 (centres unmarked)			0.86 nM	0.92
Clc1cccc(C(Cc2ccccc2)N=C2NCCN2)c1 (centres unmarked)			5.91 nM	0.76
Cc1ccccc1CC(/N=C1/NCCS1)c1cccc(Cl)c1 (centres unmarked)	8.34 nM	0.46	3.29 nM	0.89
Cc1cccc(C(Cc2ccccc2)/N=C2/NCCS2)c1C (centres unmarked)	9.48 nM	0.45	3.69 nM	0.89
Cc1cccc(CC(/N=C2/NCCS2)c2cccc(Cl)c2)c1 (centres unmarked)	4.33 nM	0.44	2.96 nM	0.82
Cc1c(F)cccc1CC(N=C1NCCN1)c1cccc(Cl)c1Cl (centres unmarked)	3.54 nM	0.31	8.04 nM	0.95
Cc1ccc(CC(N=C2NCCN2)c2cccc(Cl)c2)cc1 (centres unmarked)			5.61 nM	0.69
COc1ccccc1CC(NC1=NCCN1)c1cccc(Cl)c1 (centres unmarked)			0.61 nM	0.89
Cc1ccccc1CC(N=C1NCCN1)c1cccc(Cl)c1 (centres unmarked)			1.92 nM	0.87
COc1cccc(CC(N=C2NCCN2)c2cccc(Cl)c2Cl)c1 (centres unmarked)			1.91 nM	1.00
Fc1ccc(CC(N=C2NCCN2)c2cccc(Cl)c2Cl)cc1 (centres unmarked)			3.73 nM	0.89
COc1ccccc1CC(NC1=NCCO1)c1cccc(Cl)c1 (centres unmarked)			0.63 nM	0.91
Clc1cccc(C(Cc2ccccc2Br)N=C2NCCN2)c1Cl (centres unmarked)			3.24 nM	0.89
Clc1cc(Cl)cc(CC(N=C2NCCN2)c2cccc(Cl)c2Cl)c1 (centres unmarked)	5.74 nM	0.42	0.9 nM	1.20
Cc1cccc(C(Cc2ccccc2)N=C2NCCN2)c1C (centres unmarked)			2.54 nM	0.83
Clc1cccc(C(Cc2ccccc2)N=C2NCCN2)c1Cl (centres unmarked)			3.09 nM	0.89
Cc1cccc(C(Cc2ccccc2)/N=C2\NCCO2)c1C (centres unmarked)	13.4 nM	0.39	3.48 nM	0.89

SMILES	EC50 (Alpha 2C receptor)	RSAT (rel eff) Alpha 2C, intrinsic activity (Alpha 2C receptor)	EC50 (Alpha 2B receptor)	RSAT (rel eff) Alpha 2B, intrinsic activity (Alpha 2B receptor)
Cc1cccc(CC(N=C2NCCN2)c2cccc(Cl)c2)c1 (centres unmarked)	3.7 nM	0.38	1.52 nM	0.81
Cc1cccc(CC(/N=C2\NCCO2)c2cccc(Cl)c2)c1 (centres unmarked)	8.56 nM	0.63	2.79 nM	0.92
c1ccc(CC(N=C2NCCN2)c2ccccc2)cc1 (centres unmarked)			6.38 nM	0.77
c1ccc(CC(/N=C2\NCCO2)c2ccccc2)cc1 (centres unmarked)	3.36 nM	0.45	3.69 nM	0.95
Fc1c(Cl)cccc1C(Cc1ccccc1)N=C1NCCN1 (centres unmarked)	1.97 nM	0.39	3.57 nM	0.85
Clc1cccc(C(Cc2ccccc2)/N=C2\NCCO2)c1 (centres unmarked)	4.39 nM	0.37	7.14 nM	0.83
Clc1ccc(Cl)c(CC(N=C2NCCN2)c2cccc(Cl)c2Cl)c1 (centres unmarked)	3.92 nM	0.39	1.02 nM	0.98
Fc1cccc(Cl)c1CC(N=C1NCCN1)c1cccc(Cl)c1Cl (centres unmarked)			12.5 nM	0.89
Cc1c(Cl)cccc1C(Cc1ccccc1)N=C1NCCN1 (centres unmarked)			7.64 nM	0.77
Fc1c(Cl)cccc1C(Cc1ccccc1)/N=C1/NCCS1 (centres unmarked)	6.48 nM	0.38	4.54 nM	0.89
Cc1ccc(CC(/N=C2/NCCS2)c2cccc(Cl)c2)cc1 (centres unmarked)	11.8 nM	0.45	7.32 nM	0.76
Oc1cccc(CC(NC2=NCCN2)c2cccc(Cl)c2Cl)c1 (centres unmarked)			1.55 nM	1.05
Clc1ccc(CC(NC2=NCCN2)c2cccc(Cl)c2Cl)cc1Cl (centres unmarked)			10.8 nM	0.96
Clc1ccc(CC(N=C2NCCN2)c2cccc(Cl)c2Cl)c(Cl)c1 (centres unmarked)			2.79 nM	1.17
Cc1ccccc1CC(/N=C1\NCCO1)c1cccc(Cl)c1 (centres unmarked)	1.46 nM	0.39	1.52 nM	0.87
Cc1ccc(CC(/N=C2\NCCO2)c2cccc(Cl)c2)cc1 (centres unmarked)	6.78 nM	0.46	5.11 nM	0.74
Clc1cccc(C(Cc2ccccc2)/N=C2/NCCS2)c1 (centres unmarked)	4.71 nM	0.33	6.49 nM	0.89
Fc1c(Cl)cccc1C(Cc1ccccc1)/N=C1\NCCO1 (centres unmarked)	2.57 nM	0.32	2.79 nM	0.93
